Experiment [1] addresses T1, human CYP11B1 (Homo sapiens, UniProt P15538).
T1 construct: expressed in transfected cells
T1 sequence (P15538 25-503): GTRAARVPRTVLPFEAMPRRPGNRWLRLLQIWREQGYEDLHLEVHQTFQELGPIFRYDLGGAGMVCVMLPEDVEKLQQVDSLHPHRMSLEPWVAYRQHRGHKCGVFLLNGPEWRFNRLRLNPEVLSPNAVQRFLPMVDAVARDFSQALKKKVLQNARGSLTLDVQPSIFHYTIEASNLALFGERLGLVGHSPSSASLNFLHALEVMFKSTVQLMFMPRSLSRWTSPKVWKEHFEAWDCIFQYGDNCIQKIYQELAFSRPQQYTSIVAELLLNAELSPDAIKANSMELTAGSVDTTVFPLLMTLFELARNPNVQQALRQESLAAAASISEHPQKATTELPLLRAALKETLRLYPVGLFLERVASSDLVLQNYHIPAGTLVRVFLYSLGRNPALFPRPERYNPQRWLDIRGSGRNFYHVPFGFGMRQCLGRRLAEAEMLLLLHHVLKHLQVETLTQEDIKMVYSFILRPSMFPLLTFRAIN
Nature of the experiment: G-402 cellular enzyme assay, human CYP11B1 (cortisol release, HTRF). In kind it is cell-based. The following applies: G-402 cells, 1 μM Deoxycortisol. Summed up: (§1)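 Steroid output from supernatants, quantified by HTRF as cortisol for CYP11B1 or aldosterone for CYP11B2, gave EC50 values by least-squares 4-parameter MMF fitting against inhibitor concentration. Stably transfected G-402 cells carrying the human enzyme received 1 μM deoxycortisol or 1 μM deoxycorticosterone respectively, 16 h, DMEM/F12 with 2.5% charcoal-stripped FCS.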

The target of experiment [2] is T2, human CYP11B2 (Homo sapiens, UniProt P19099).
T2 construct: expressed in transfected cells
T2 sequence (P19099 25-503): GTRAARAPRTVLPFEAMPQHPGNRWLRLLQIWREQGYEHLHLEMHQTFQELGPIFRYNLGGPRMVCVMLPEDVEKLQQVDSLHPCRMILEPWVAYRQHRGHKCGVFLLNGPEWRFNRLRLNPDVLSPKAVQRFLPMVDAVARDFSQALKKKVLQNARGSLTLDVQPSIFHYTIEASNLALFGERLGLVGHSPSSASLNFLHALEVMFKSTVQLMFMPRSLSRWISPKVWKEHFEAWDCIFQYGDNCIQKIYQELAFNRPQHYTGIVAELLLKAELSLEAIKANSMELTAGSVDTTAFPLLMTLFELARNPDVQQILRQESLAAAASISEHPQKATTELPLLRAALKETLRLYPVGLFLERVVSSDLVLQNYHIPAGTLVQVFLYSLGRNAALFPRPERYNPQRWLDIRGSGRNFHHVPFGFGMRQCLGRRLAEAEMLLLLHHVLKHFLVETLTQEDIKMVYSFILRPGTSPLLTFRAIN
Kind of experiment: G-402 cellular enzyme assay, human CYP11B2 (aldosterone release, HTRF). The class given is cell-based. To be noted: G-402 cells, 1 μM Deoxycorticosterone. In a few lines: as §1

In the case of `CC(C)OCc1cncc(N2CCc3cc(Cl)ccc3C2=O)c1` [Example 194, 6-Chloro-2-(5-isopropoxymethyl-pyridin-3-yl)-3,4-dihydro-2H-isoquinolin-1-one], the values for the EC50 in experiment [1] and in experiment [2] were 224 nM and 20.3 nM, respectively.
The corresponding values for `CN(Cc1cncc(N2C(=O)c3ccc(Cl)cc3C2(C)C)c1)S(C)(=O)=O` [Example 392, N-[5-(6-Chloro-1,1-dimethyl-3-oxo-1,3-dihydro-isoindol-2-yl)-pyridin-3-ylmethyl]-N-methyl-methane-sulfonamide] are 327 nM and 9.2 nM.
The corresponding values for `Cc1cc(C)n(Cc2cncc(N3CCc4cc(Cl)ccc4C3=O)c2)n1` [Example 151, 6-Chloro-2-[5-(3,5-dimethyl-pyrazol-1-ylmethyl)-pyridin-3-yl]-3,4-dihydro-2H-isoquinolin-1-one] are 3920 nM and 101 nM.
In the case of `CC1c2cc(Cl)ccc2C(=O)N1c1cncc(F)c1` (stereo not drawn) [Example 123, 5-Chloro-2-(5-fluoro-pyridin-3-yl)-3-methyl-2,3-dihydro-isoindol-1-one], the EC50 (in general, the concentration that produces a half-maximal response) was 7730 nM in experiment [1] and 122 nM in experiment [2].
The corresponding values for `CC(Nc1ccccc1)c1cncc(N2CCc3cc(Cl)ccc3C2=O)c1` (stereo not drawn) [Example 278, 6-Chloro-2-[5-(1-phenylamino-ethyl)-pyridin-3-yl]-3,4-dihydro-2H-isoquinolin-1-one] are 34.4 nM and 6.1 nM.
The corresponding values for `CC(=O)NC1CCc2c1cncc2N1Cc2cc(Cl)ccc2C1=O` (single isomer, unassigned; (+)) [Example 319, (+)-N—[(R or S)-4-(5-Chloro-1-oxo-1,3-dihydro-isoindol-2-yl)-6,7-dihydro-5H-[2]pyrindin-7-yl]-acetamide] are 5130 nM and 109 nM.
The corresponding values for `CCS(=O)(=O)N1CCN(c2cncc(N3C(=O)c4ccc(Cl)cc4C3(C)C)c2)CC1` [Example 458, 5-Chloro-2-[5-(4-ethanesulfonyl-piperazin-1-yl)-pyridin-3-yl]-3,3-dimethyl-2,3-dihydroisoindol-1-one] are 351 nM and 1.7 nM.
Regarding `Cc1nncn1Cc1cncc(N2CCc3cc(Cl)ccc3C2=O)c1` [Example 177, 6-Chloro-2-[5-(3-methyl-[1,2,4]triazol-4-ylmethyl)-pyridin-3-yl]-3,4-dihydro-2H-isoquinolin-1-one], the figures for the EC50 in experiment [1] and in experiment [2] were 6310 nM and 412 nM, respectively.
On to `Cn1nccc1-c1cncc(N2CCc3cc(Cl)ccc3C2=O)c1Cl` [Example 424, 6-Chloro-2-[4-chloro-5-(2-methyl-2H-pyrazol-3-yl)-pyridin-3-yl]-3,4-dihydro-2H-isoquinolin-1-one], for which the EC50 in experiment [1] was determined as 140 nM; in experiment [2], 6.2 nM.
The corresponding values for `O=C1c2ccc(Cl)cc2CCN1c1cncc(Cn2ccnn2)c1` [Example 175, 6-Chloro-2-(5-[1,2,3]triazol-1-ylmethyl-pyridin-3-yl)-3,4-dihydro-2H-isoquinolin-1-one] are 656 nM and 105 nM.
Turning to `CC(O)c1ccncc1N1CCc2cc(Cl)ccc2C1=O` (stereo not drawn) [Example 55, 6-Chloro-2-[4-(1-hydroxy-ethyl)-pyridin-3-yl]-3,4-dihydro-2H-isoquinolin-1-one], the EC50 in experiment [1] is 9850 nM; in experiment [2], 343 nM.
On the same counts, the results for `Cc1ccc(Cc2cncc(N3CCc4cc(Cl)ccc4C3=O)c2)cn1` [Example 206, 6-Chloro-2-[5-(6-methyl-pyridin-3-ylmethyl)-pyridin-3-yl]-3,4-dihydro-2H-isoquinolin-1-one] are 6.8 nM and 1.7 nM.
In the case of `O=C1c2ccc(Cl)cc2CCN1c1cncc(CN2CCS(=O)(=O)CC2)c1` [Example 156, 6-Chloro-2-[5-(1,1-dioxo-1λ^6-thiomorpholin-4-ylmethyl)-pyridin-3-yl]-3,4-dihydro-2H-isoquinolin-1-one], the EC50 in experiment [1] is 337 nM; in experiment [2], 43.9 nM.
As to `COC(c1cncc(N2CCc3cc(Cl)ccc3C2=O)c1)C(F)(F)F` (stereo not drawn) [Example 19, 6-Chloro-2-[5-(2,2,2-trifluoro-1-methoxy-ethyl)-pyridin-3-yl]-3,4-dihydro-2H-isoquinolin-1-one], the EC50 in experiment [1] was 198 nM; in experiment [2], 60.3 nM.
As to `O=C1c2ccc(Cl)cc2CCN1c1cccnn1` [Example 52, 6-Chloro-2-pyridazin-3-yl-3,4-dihydro-2H-isoquinolin-1-one], the figures for the EC50 in experiment [1] and in experiment [2] were 2460 nM and 382 nM, respectively.
On the same counts, the results for `CC(C)(O)c1cncc(N2CCc3cc(Cl)ccc3C2=O)c1` [Example 12, 6-Chloro-2-[5-(1-hydroxy-1-methyl-ethyl)-pyridin-3-yl]-3,4-dihydro-2H-isoquinolin-1-one] are 118 nM and 35.7 nM.
The corresponding values for `Cc1ccc(C(=O)NCc2cncc(N3C(=O)c4ccc(Cl)cc4C3(C)C)c2)cn1` [Example 436, N-[5-(6-Chloro-1,1-dimethyl-3-oxo-1,3-dihydro-isoindol-2-yl)-pyridin-3-ylmethyl]-6-methyl-nicotinamide] are 158 nM and 5.8 nM.
On the same counts, the results for `CCS(=O)(=O)N1CC(Oc2cncc(N3C(=O)c4ccc(Cl)cc4C3(C)C)c2)C1` [Example 453, 5-Chloro-2-[5-(1-ethanesulfonyl-azetidin-3-yloxy)-pyridin-3-yl]-3,3-dimethyl-2,3-dihydro-isoindol-1-one] are 876 nM and 5.1 nM.
For the compound `CC[C@@H]1c2cc(Cl)ccc2C(=O)N1c1cncc2c1CCC[C@H]2NS(C)(=O)=O` (single isomer, unassigned) [Example 347, N-[(R or S)-4-((R or S)-5-Chloro-3-ethyl-1-oxo-1,3-dihydro-isoindol-2-yl)-5,6,7,8-tetrahydro-isoquinolin-8-yl]-methanesulfonamide], the values for the EC50 in experiment [1] and in experiment [2] were 22900 nM and 162 nM, respectively.
On the same counts, the results for `COC(c1cncc(N2CCc3cc(Cl)ccc3C2=O)c1)C1CC1` (stereo not drawn) [Example 21, 6-Chloro-2-[5-(cyclopropyl-methoxy-methyl)-pyridin-3-yl]-3,4-dihydro-2H-isoquinolin-1-one] are 263 nM and 41.5 nM.
For `COC[C@@H]1CCCN1Cc1cncc(N2CCc3cc(Cl)ccc3C2=O)c1` [Example 48, 6-Chloro-2-[5-((S)-2-methoxymethyl-pyrrolidin-1-ylmethyl)-pyridin-3-yl]-3,4-dihydro-2H-isoquinolin-1-one], the EC50 in experiment [1] is 1110 nM; in experiment [2], 141 nM.
On the same counts, the results for `CC(c1cncc(N2CCc3cc(Cl)ccc3C2=O)c1)N1CCOC1=O` (stereo not drawn) [Example 275, 6-Chloro-2-{5-[1-(2-oxo-oxazolidin-3-yl)-ethyl]-pyridin-3-yl}-3,4-dihydro-2H-isoquinolin-1-one] are 7820 nM and 731 nM.
The corresponding values for `CCS(=O)(=O)N1CC[C@@H](Oc2cncc(N3C(=O)c4ccc(Cl)cc4C3(C)C)c2)C1` [Example 447, 5-Chloro-2-[5-((R)-1-ethanesulfonyl-pyrrolidin-3-yloxy)-pyridin-3-yl]-3,3-dimethyl-2,3-dihydro-isoindol-1-one] are 233 nM and 1.9 nM.
Take `O=C1c2ccc(Cl)cc2CCN1c1cncc(COC2CCC2)c1` [Example 203, 6-Chloro-2-(5-cyclobutoxymethyl-pyridin-3-yl)-3,4-dihydro-2H-isoquinolin-1-one]: the figures for the EC50 in experiment [1] and in experiment [2] were 212 nM and 22.4 nM, respectively.
For the compound `CCC1c2cc(Cl)ccc2C(=O)N1c1cncc(F)c1` (single isomer, unassigned) [Example 310, (S or R)-5-Chloro-3-ethyl-2-(5-fluoro-pyridin-3-yl)-2,3-dihydro-isoindol-1-one], the values for the EC50 in experiment [1] and in experiment [2] were 3970 nM and 16.5 nM, respectively.
Turning to `O=C1c2ccc(Cl)cc2CCN1c1cncc(-c2cccc(Cl)c2)c1` [Example 234, 6-Chloro-2-[5-(3-chloro-phenyl)-pyridin-3-yl]-3,4-dihydro-2H-isoquinolin-1-one], the results for the 50% effective concentration (EC50) in experiment [1] and in experiment [2] were 1580 nM and 44.5 nM, respectively.
As to `CC(C)N1CCN(Cc2cncc(N3C(=O)c4ccc(Cl)cc4C3(C)C)c2)C1=O` [Example 416, 5-Chloro-2-[5-(3-isopropyl-2-oxo-imidazolidin-1-ylmethyl)-pyridin-3-yl]-3,3-dimethyl-2,3-dihydro-isoindol-1-one], the EC50 was found to be 723 nM in experiment [1] and 6 nM in experiment [2].
